Data from patent publication US8410112B2, “Compounds useful as inhibitors of ATR kinase” (Vertex Pharmaceuticals Incorporated, priority 2008, dated 2013).

Target: T1, full-length ATR (Homo sapiens, UniProt Q13535)
T1 construct: in the presence of 5 nM full-length ATR
Experiment: ATR Inhibition Assay (radioactive-phosphate incorporation)
Assay type: biochemical
Details: Ki(app); 5 nM full-length ATR, 10 μM ATP, 800 μM target peptide, 25° C.
How it was run: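 After a 10-min pre-incubation of compound with 5 nM enzyme at 25 °C, ATP was added to start the reaction (final 10 μM [γ-33P]ATP, 800 μM peptide; Tris/HCl pH 7.5, MgCl2, DTT), which ran 24 h. Incorporated 33P was captured on phosphocellulose filters, and Ki(app) was fitted by non-linear regression.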

T1 sequence (Q13535 whole entry): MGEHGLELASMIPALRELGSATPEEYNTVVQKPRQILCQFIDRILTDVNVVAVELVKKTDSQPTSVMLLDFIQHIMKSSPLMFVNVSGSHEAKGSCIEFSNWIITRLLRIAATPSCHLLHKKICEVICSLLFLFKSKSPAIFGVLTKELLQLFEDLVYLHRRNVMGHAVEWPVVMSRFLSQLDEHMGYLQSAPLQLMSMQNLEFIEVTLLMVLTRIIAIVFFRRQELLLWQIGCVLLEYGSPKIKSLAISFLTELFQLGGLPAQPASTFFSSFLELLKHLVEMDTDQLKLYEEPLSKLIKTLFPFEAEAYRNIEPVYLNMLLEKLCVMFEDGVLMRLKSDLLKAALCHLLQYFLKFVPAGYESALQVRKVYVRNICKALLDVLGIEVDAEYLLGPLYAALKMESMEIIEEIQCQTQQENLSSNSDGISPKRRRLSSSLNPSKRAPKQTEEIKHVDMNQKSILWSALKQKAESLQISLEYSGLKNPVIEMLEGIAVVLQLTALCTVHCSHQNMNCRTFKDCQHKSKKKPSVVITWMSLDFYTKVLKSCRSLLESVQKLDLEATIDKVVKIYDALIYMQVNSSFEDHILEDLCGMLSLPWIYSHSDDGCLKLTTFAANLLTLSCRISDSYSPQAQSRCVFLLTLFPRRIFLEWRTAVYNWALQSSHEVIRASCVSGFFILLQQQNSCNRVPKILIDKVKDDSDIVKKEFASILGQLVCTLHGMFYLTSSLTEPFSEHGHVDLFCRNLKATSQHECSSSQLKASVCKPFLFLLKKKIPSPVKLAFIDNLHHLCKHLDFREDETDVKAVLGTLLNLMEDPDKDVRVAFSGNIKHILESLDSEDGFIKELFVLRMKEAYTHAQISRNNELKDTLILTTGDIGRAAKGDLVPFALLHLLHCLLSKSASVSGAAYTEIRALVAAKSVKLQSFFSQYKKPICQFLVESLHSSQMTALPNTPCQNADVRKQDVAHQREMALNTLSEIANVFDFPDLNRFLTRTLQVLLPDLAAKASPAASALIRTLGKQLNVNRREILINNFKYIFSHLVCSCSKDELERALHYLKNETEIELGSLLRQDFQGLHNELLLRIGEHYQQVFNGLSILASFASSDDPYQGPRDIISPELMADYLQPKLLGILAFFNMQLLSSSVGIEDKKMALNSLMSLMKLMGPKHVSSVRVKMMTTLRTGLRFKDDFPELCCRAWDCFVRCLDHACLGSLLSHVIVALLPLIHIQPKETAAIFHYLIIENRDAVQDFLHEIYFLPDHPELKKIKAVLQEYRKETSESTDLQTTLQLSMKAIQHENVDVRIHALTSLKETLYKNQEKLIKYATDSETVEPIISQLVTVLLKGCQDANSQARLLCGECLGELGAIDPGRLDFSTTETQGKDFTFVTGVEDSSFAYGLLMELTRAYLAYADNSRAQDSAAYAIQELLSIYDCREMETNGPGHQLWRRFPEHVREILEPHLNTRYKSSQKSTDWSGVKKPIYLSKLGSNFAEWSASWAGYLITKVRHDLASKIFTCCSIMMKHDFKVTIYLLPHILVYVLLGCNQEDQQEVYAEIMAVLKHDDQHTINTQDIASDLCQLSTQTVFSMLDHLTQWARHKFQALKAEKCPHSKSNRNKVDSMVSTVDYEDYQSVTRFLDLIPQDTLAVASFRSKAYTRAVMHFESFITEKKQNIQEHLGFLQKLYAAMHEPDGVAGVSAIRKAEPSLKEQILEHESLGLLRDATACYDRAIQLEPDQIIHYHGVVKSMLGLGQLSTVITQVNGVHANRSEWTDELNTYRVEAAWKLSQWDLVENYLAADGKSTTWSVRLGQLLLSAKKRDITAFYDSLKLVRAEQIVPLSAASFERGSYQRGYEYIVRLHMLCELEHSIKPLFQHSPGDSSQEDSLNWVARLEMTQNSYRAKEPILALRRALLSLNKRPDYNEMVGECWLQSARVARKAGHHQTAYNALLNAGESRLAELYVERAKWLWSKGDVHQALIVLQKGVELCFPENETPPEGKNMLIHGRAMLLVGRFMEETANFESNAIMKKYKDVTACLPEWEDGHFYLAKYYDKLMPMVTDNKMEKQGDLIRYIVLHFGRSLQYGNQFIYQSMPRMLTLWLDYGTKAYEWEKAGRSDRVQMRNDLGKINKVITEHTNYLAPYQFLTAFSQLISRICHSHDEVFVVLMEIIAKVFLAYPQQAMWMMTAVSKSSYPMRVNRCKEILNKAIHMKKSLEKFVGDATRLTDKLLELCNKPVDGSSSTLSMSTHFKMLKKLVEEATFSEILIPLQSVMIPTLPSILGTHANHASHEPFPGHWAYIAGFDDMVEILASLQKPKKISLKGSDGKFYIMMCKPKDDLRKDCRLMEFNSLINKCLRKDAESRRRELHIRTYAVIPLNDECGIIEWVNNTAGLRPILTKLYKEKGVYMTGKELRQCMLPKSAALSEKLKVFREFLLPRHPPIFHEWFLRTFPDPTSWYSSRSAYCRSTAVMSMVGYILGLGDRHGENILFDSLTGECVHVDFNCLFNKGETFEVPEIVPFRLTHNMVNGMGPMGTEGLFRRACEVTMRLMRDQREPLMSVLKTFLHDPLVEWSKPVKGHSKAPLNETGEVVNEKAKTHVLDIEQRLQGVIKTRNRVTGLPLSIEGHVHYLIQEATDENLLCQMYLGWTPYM

SMILES	Ki [nM]
CC(=O)N[C@H]1CCN(c2cnc(N)c(-c3nc4ccc(C)cc4[nH]3)n2)C1 [Compound I-4, (S)-N-(1-(5-amino-6-(6-methyl-1H-benzo[d]imidazol-2-yl)pyrazin-2-yl)pyrrolidin-3-yl)ethanamide]	100 to 1000
Nc1ncc(C2=CCN(C(=O)Cc3ccccc3)CC2)nc1-c1nnc(-c2ccccc2)o1 [Compound I-201, 1-(4-(5-amino-6-(5-phenyl-1,3,4-oxadiazol-2-yl)pyrazin-2-yl)-5,6-dihydropyridin-1(2H)-yl)-2-phenylethanone]	< 100
Nc1ncc(N2CCN(C(=O)N3CCCCC3)CC2)nc1-c1nnc(-c2ccccc2)o1 [Compound I-231, (4-(5-amino-6-(5-phenyl-1,3,4-oxadiazol-2-yl)pyrazin-2-yl)piperazin-1-yl)(piperidin-1-yl)methanone]	100 to 1000
Nc1ncc(C2=CCN(c3nccs3)CC2)nc1-c1nc2ccccc2[nH]1 [Compound I-164, 3-(1H-benzo[d]imidazol-2-yl)-5-(1-(thiazol-2-yl)-1,2,3,6-tetrahydropyridin-4-yl)pyrazin-2-amine]	< 100
CC(C)(C)C(=O)N[C@H]1CCN(c2cnc(N)c(-c3nc4ccccc4[nH]3)n2)C1 [Compound I-111, (S)-N-(1-(5-amino-6-(1H-benzo[d]imidazol-2-yl)pyrazin-2-yl)pyrrolidin-3-yl)-2,2-dimethylpropanamide]	100 to 1000
CCS(=O)(=O)N1CC2CN(c3cnc(N)c(-c4nnc(-c5ccc(CNC)cc5)o4)n3)CC2C1 (stereo not drawn) [Compound I-332, 5-(2-Ethylsulfonyl-1,3,3a,4,6,6a-hexahydropyrrolo[3,4-c]pyrrol-5-yl)-3-[5-[4-(methylaminomethyl)phenyl]-1,3,4-oxadiazol-2-yl]pyrazin-2-amine]	1000 to 10000
CN(C)S(=O)(=O)N1CCN(c2cnc(N)c(C(=O)Nc3ccccn3)n2)CC1 [Compound I-81, 3-amino-6-(4-(N,N-dimethylsulfamoyl)piperazin-1-yl)-N-(pyridin-2-yl)pyrazine-2-carboxamide]	1000 to 10000
Nc1ncc(C2=CCN(C(=O)OCc3ccccc3)CC2)nc1-c1nnc(-c2ccccc2)o1 [Compound I-257, benzyl 4-(5-amino-6-(5-phenyl-1,3,4-oxadiazol-2-yl)pyrazin-2-yl)-5,6-dihydropyridine-1(2H)-carboxylate]	100 to 1000
Nc1ncc(N2CCN(C(=O)N3CCOCC3)CC2)nc1C(=O)Nc1ccccn1 [Compound I-114, 3-amino-6-(4-(morpholine-4-carbonyl)piperazin-1-yl)-N-(pyridin-2-yl)pyrazine-2-carboxamide]	1000 to 10000
CCS(=O)(=O)N1CC2CN(c3cnc(N)c(-c4nc5ccc(C)cc5[nH]4)n3)CC2C1 (stereo not drawn) [Compound I-158, 5-(5-(ethylsulfonyl)hexahydropyrrolo[3,4-c]pyrrol-2(1H)-yl)-3-(6-methyl-1H-benzo[d]imidazol-2-yl)pyrazin-2-amine]	100 to 1000
Nc1ncc(N2CCN(C(=O)c3ccccn3)CC2)nc1-c1nnc(-c2ccccc2)o1 [Compound I-187, (4-(5-amino-6-(5-phenyl-1,3,4-oxadiazol-2-yl)pyrazin-2-yl)piperazin-1-yl)(pyridin-2-yl)methanone]	100 to 1000
CCC(CC)C(=O)N1CCN(c2cnc(N)c(-c3nc4ccccc4[nH]3)n2)CC1 [Compound I-175, 1-(4-(5-amino-6-(1H-benzo[d]imidazol-2-yl)pyrazin-2-yl)piperazin-1-yl)-2-ethylbutan-1-one]	1000 to 10000
CNCc1ccc(-c2nnc(-c3nc(N4CCC5(CCN(C)C5=O)CC4)cnc3N)o2)cc1 [Compound I-344, 8-[5-Amino-6-[5-[4-(methylaminomethyl)phenyl]-1,3,4-oxadiazol-2-yl]pyrazin-2-yl]-2-methyl-2,8-diazaspiro[4.5]decan-1-one]	< 100
CCC(=O)N1CCC(c2cnc(N)c(-c3nnc(-c4ccc(CNC)cc4)o3)n2)CC1 [Compound I-353, 1-(4-(5-Amino-6-(5-(4-((methylamino)methyl)phenyl)-1,3,4-oxadiazol-2-yl)pyrazin-2-yl)piperidin-1-yl)propan-1-one]	100 to 1000
Nc1ncc(C2=CCN(c3ccccc3)CC2)nc1-c1nc2ccccc2[nH]1 [Compound I-159, 3-(1H-benzo[d]imidazol-2-yl)-5-(1-phenyl-1,2,3,6-tetrahydropyridin-4-yl)pyrazin-2-amine]	100 to 1000
Nc1ncc(N2CCN(S(=O)(=O)c3ccoc3)CC2)nc1-c1nnc(-c2ccccc2)o1 [Compound I-90, 5-(4-(furan-3-ylsulfonyl)piperazin-1-yl)-3-(5-phenyl-1,3,4-oxadiazol-2-yl)pyrazin-2-amine]	100 to 1000
Nc1ncc(C2=CCN(S(=O)(=O)c3ccsc3)CC2)nc1-c1nc2ccccc2[nH]1 [Compound I-105, 3-(1H-benzo[d]imidazol-2-yl)-5-(1-(thiophen-3-ylsulfonyl)-1,2,3,6-tetrahydropyridin-4-yl)pyrazin-2-amine]	< 100
Nc1ncc(N2CCN(C(=O)OCc3ccccc3)CC2)nc1C(=O)Nc1ccccn1 [Compound I-260, benzyl 4-(5-amino-6-(pyridin-2-ylcarbamoyl)pyrazin-2-yl)piperazine-1-carboxylate]	1000 to 10000
CCS(=O)(=O)N[C@@H]1C2CN(c3cnc(N)c(-c4nnc(-c5ccc(CNC)cc5)o4)n3)C[C@@H]21 (stereo partly drawn) [Compound I-369]	< 100

Results, then the compound that gave them:

Ki [nM]	SMILES
< 100	CCC(CC)C(=O)N1CC=C(c2cnc(N)c(-c3nnc(-c4ccccc4)o3)n2)CC1 [Compound I-131, 1-(4-(5-amino-6-(5-phenyl-1,3,4-oxadiazol-2-yl)pyrazin-2-yl)-5,6-dihydropyridin-1(2H)-yl)-2-ethylbutan-1-one]
100 to 1000	CS(=O)(=O)N1CCN(c2cnc(N)c(-c3nc4ccccc4[nH]3)n2)CC1 [Compound I-86, 3-(1H-benzo[d]imidazol-2-yl)-5-(4-(methylsulfonyl)piperazin-1-yl)pyrazin-2-amine]
< 100	CC#CCOC(=O)N1CC=C(c2cnc(N)c(-c3nnc(-c4ccccc4)o3)n2)CC1 [Compound I-115, but-2-ynyl 4-(5-amino-6-(5-phenyl-1,3,4-oxadiazol-2-yl)pyrazin-2-yl)-5,6-dihydropyridine-1(2H)-carboxylate]
100 to 1000	NCCC(=O)N1CC=C(c2cnc(N)c(-c3nc4ccccc4[nH]3)n2)CC1 [Compound I-338, 3-amino-1-(4-(5-amino-6-(1H-benzo[d]imidazol-2-yl)pyrazin-2-yl)-5,6-dihydropyridin-1(2H)-yl)propan-1-one]
100 to 1000	Nc1ncc(N2CCN(S(=O)(=O)c3ccoc3)CC2)nc1C(=O)Nc1ccccn1 [Compound I-119, 3-amino-6-(4-(furan-3-ylsulfonyl)piperazin-1-yl)-N-(pyridin-2-yl)pyrazine-2-carboxamide]
100 to 1000	Nc1ncc(N2CCN(C(=O)C3CCCC3)CC2)nc1C(=O)Nc1ccccn1 [Compound I-144, 3-amino-6-(4-(cyclopentanecarbonyl)piperazin-1-yl)-N-(pyridin-2-yl)pyrazine-2-carboxamide]
100 to 1000	CCS(=O)(=O)N1CCN(c2cnc(N)c(-c3nnc(-c4cccc(N)c4)[nH]3)n2)CC1 [Compound I-57, 3-(5-(3-aminophenyl)-4H-1,2,4-triazol-3-yl)-5-(4-(ethylsulfonyl)piperazin-1-yl)pyrazin-2-amine]
100 to 1000	Nc1ncc(N2CC[C@H](NC(=O)C3CCCC3)C2)nc1-c1nc2ccccc2[nH]1 [Compound I-204, (S)-N-(1-(5-amino-6-(1H-benzo[d]imidazol-2-yl)pyrazin-2-yl)pyrrolidin-3-yl)cyclopentanecarboxamide]
100 to 1000	CN(C)S(=O)(=O)N1CCN(c2cnc(N)c(-c3nnc(-c4ccccc4)o3)n2)CC1 [Compound I-83, 4-(5-amino-6-(5-phenyl-1,3,4-oxadiazol-2-yl)pyrazin-2-yl)-N,N-dimethylpiperazine-1-sulfonamide]
100 to 1000	CCS(=O)(=O)N1CC=C(c2cnc(N)c(-c3noc(-c4ccccc4)n3)n2)CC1 [Compound I-307, 5-(1-ethylsulfonyl-3,6-dihydro-2H-pyridin-4-yl)-3-(5-phenyl-1,2,4-oxadiazol-3-yl)pyrazin-2-amine]
100 to 1000	Nc1ncc(N2CCN(S(=O)(=O)c3ccccc3)CC2)nc1-c1nc2ccccc2[nH]1 [Compound I-110, 3-(1H-benzo[d]imidazol-2-yl)-5-(4-(phenylsulfonyl)piperazin-1-yl)pyrazin-2-amine]
100 to 1000	CCOC(=O)C1CC1c1cnc(N)c(-c2nnc(-c3ccccc3)o2)n1 (stereo not drawn) [Compound I-337, Ethyl 2-(5-amino-6-(5-phenyl-1,3,4-oxadiazol-2-yl)pyrazin-2-yl)cyclopropanecarboxylate]
100 to 1000	Nc1ncc(N2CCN(C(=O)c3ccccc3)CC2)nc1-c1nc2ccccc2[nH]1 [Compound I-208, (4-(5-amino-6-(1H-benzo[d]imidazol-2-yl)pyrazin-2-yl)piperazin-1-yl)(phenyl)methanone]
1000 to 10000	Cc1ccc2nc(-c3nc(N4CCS(=O)(=O)CC4)cnc3N)[nH]c2c1 [Compound I-21, 5-(1,1-dioxo-1,4-thiazinan-4-yl)-3-(6-methyl-1H-benzimidazol-2-yl)pyrazin-2-amine]
1000 to 10000	Cc1ccc2nc(-c3nc(N4CCC(=O)CC4)cnc3N)[nH]c2c1 [Compound I-11, 1-(5-amino-6-(6-methyl-1H-benzo[d]imidazol-2-yl)pyrazin-2-yl)piperidin-4-one]
100 to 1000	Cc1ccc2nc(-c3nc(N4CCOCC4)cnc3N)[nH]c2c1 [Compound I-3, 3-(6-methyl-1H-benzo[d]imidazol-2-yl)-5-morpholinopyrazin-2-amine]
100 to 1000	Nc1ncc(N2CCN(C(=O)Cc3ccccc3)CC2)nc1-c1nnc(-c2ccccc2)o1 [Compound I-197, 1-(4-(5-amino-6-(5-phenyl-1,3,4-oxadiazol-2-yl)pyrazin-2-yl)piperazin-1-yl)-2-phenylethanone]
